Measurements published in the supplement of paper PMC11451515.

Experiments:
Conditions in all cases: 48 h
NOMO1 [1] = assay: cell viability relative to DMSO control; higher = less cytotoxic
Method in brief: (§1)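 Viability is a per-plate percentage relative to DMSO wells, with cell-free wells as background. CellTiter-Glo One luminescence was read after 48 h at 37°C on 1536-well plates (5 μl) of NOMO1 or SEM (500 cells/well) or P12-Ichikawa (1000 cells/well) leukemia cells. The cells had been adapted for at least four passages in each medium and pin-dosed with library compounds in DMSO from 47 μM to 0.79 nM in 11 threefold steps.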

P12-Ichikawa [2] = assay: as above
Method in brief: as §1

SEM cells [3] = assay: as above
Method in brief: as §1

NOMO1 [4] = assay: AUC of viability dose-response curve (% viability x log10 dose units); higher = less sensitive
Method in brief: (§2)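 Leukemia cells adapted to each medium were seeded in 1536-well plates (500 or 1000 cells/well). They were dosed with library compounds in DMSO at 11 threefold doses, 47 μM to 0.79 nM, for 48 h at 37°C. CellTiter-Glo One luminescence was normalised per plate to DMSO and cell-free wells. Area under the curve was integrated by trapezoidal rule over log10 doses on a four-parameter log-logistic fit; curves exceeding full viability were scaled and curves failing quality control removed.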

P12-Ichikawa [5] = assay: as above
Method in brief: as §2

SEM cells [6] = assay: as above
Method in brief: as §2

CCCCCCNC(=O)N1\C=C(F)/C(=O)NC1=O
cell viability [%]
Conditions | NOMO1 [1] | P12-Ichikawa [2] | SEM cells [3]
HPLM + 10% dialyzed FBS, 0.000781 µM | 117 | 122 | 126
HPLM + 10% dialyzed FBS, 0.00234 µM | 136 | 124 | 104
HPLM + 10% dialyzed FBS, 0.00702 µM | 124 | 123 | 113
HPLM + 10% dialyzed FBS, 0.0211 µM | 127 | 127 | 118
HPLM + 10% dialyzed FBS, 0.0632 µM | 128 | 121 | 121
HPLM + 10% dialyzed FBS, 0.19 µM | 137 | 129 | 118
HPLM + 10% dialyzed FBS, 0.569 µM | 122 | 126 | 124
HPLM + 10% dialyzed FBS, 1.71 µM | 124 | 124 | 110
HPLM + 10% dialyzed FBS, 5.12 µM | 118 | 113 | 121
HPLM + 10% dialyzed FBS, 15.4 µM | 94.6 | 107 | 108
HPLM + 10% dialyzed FBS, 46.1 µM | 79.9 | 89.3 | 83.1
RPMI 5 mM glucose + 10% FBS, 0.000781 µM | 111 | – | 115
RPMI 5 mM glucose + 10% FBS, 0.00234 µM | 119 | – | 118
RPMI 5 mM glucose + 10% FBS, 0.00702 µM | 136 | – | 128
RPMI 5 mM glucose + 10% FBS, 0.0211 µM | 109 | – | 117
RPMI 5 mM glucose + 10% FBS, 0.0632 µM | 109 | – | 134
RPMI 5 mM glucose + 10% FBS, 0.19 µM | 114 | – | 117
RPMI 5 mM glucose + 10% FBS, 0.569 µM | 129 | – | 112
RPMI 5 mM glucose + 10% FBS, 1.71 µM | 127 | – | 129
RPMI 5 mM glucose + 10% FBS, 5.12 µM | 122 | – | 118
RPMI 5 mM glucose + 10% FBS, 15.4 µM | 115 | – | 97.9
RPMI 5 mM glucose + 10% FBS, 46.1 µM | 83.9 | – | 73.6
RPMI 5 mM glucose + 10% dialyzed FBS, 0.000781 µM | 124 | 108 | 126
RPMI 5 mM glucose + 10% dialyzed FBS, 0.00234 µM | 136 | 118 | 108
RPMI 5 mM glucose + 10% dialyzed FBS, 0.00702 µM | 124 | 122 | 116
RPMI 5 mM glucose + 10% dialyzed FBS, 0.0211 µM | 122 | 122 | 129
RPMI 5 mM glucose + 10% dialyzed FBS, 0.0632 µM | 110 | 127 | 120
RPMI 5 mM glucose + 10% dialyzed FBS, 0.19 µM | 128 | 117 | 107
RPMI 5 mM glucose + 10% dialyzed FBS, 0.569 µM | 130 | 129 | 99.8
RPMI 5 mM glucose + 10% dialyzed FBS, 1.71 µM | 120 | 121 | 101
RPMI 5 mM glucose + 10% dialyzed FBS, 5.12 µM | 110 | 116 | 106
RPMI 5 mM glucose + 10% dialyzed FBS, 15.4 µM | 82.3 | 91.8 | 80.5
RPMI 5 mM glucose + 10% dialyzed FBS, 46.1 µM | 69.6 | 81.8 | 46.4

AUC of viability dose-response curve
Conditions | NOMO1 [4] | P12-Ichikawa [5] | SEM cells [6]
HPLM + 10% dialyzed FBS | 451 | 458 | 466
RPMI 5 mM glucose + 10% FBS | 468 | 459 | 458
RPMI 5 mM glucose + 10% dialyzed FBS | 443 | 456 | 435

CCC(C)CCCCC(=O)N[C@@H](CCN)C(=O)NC(C(=O)N[C@H](CCN)C(=O)N[C@@H]1CCNC(=O)C([C@@H](C)O)NC(=O)[C@@H](CCN)NC(=O)[C@@H](CCN)NC(=O)[C@@H](CC(C)C)NC(=O)[C@H](Cc2ccccc2)NC(=O)[C@H](CCN)NC1=O)[C@@H](C)O (stereo not given in full)
cell viability [%]
Conditions | NOMO1 [1] | P12-Ichikawa [2] | SEM cells [3]
HPLM + 10% dialyzed FBS, 0.000781 µM | 118 | 114 | 81.6
HPLM + 10% dialyzed FBS, 0.00234 µM | 110 | 118 | 85.8
HPLM + 10% dialyzed FBS, 0.00702 µM | 113 | 117 | 94
HPLM + 10% dialyzed FBS, 0.0211 µM | 112 | 117 | 94.3
HPLM + 10% dialyzed FBS, 0.0632 µM | 123 | 122 | 100
HPLM + 10% dialyzed FBS, 0.19 µM | 133 | 128 | 92.9
HPLM + 10% dialyzed FBS, 0.569 µM | 137 | 129 | 76.5
HPLM + 10% dialyzed FBS, 1.71 µM | 119 | 124 | 112
HPLM + 10% dialyzed FBS, 5.12 µM | 124 | 129 | 109
HPLM + 10% dialyzed FBS, 15.4 µM | 127 | 128 | 110
HPLM + 10% dialyzed FBS, 46.1 µM | 125 | 126 | 101
RPMI 5 mM glucose + 10% FBS, 0.000781 µM | 102 | 114 | 104
RPMI 5 mM glucose + 10% FBS, 0.00234 µM | 125 | 113 | 113
RPMI 5 mM glucose + 10% FBS, 0.00702 µM | 109 | 115 | 109
RPMI 5 mM glucose + 10% FBS, 0.0211 µM | 108 | 120 | 109
RPMI 5 mM glucose + 10% FBS, 0.0632 µM | 112 | 135 | 107
RPMI 5 mM glucose + 10% FBS, 0.19 µM | 120 | 135 | 110
RPMI 5 mM glucose + 10% FBS, 0.569 µM | 118 | 134 | 90.1
RPMI 5 mM glucose + 10% FBS, 1.71 µM | 130 | 131 | 108
RPMI 5 mM glucose + 10% FBS, 5.12 µM | 130 | 132 | 111
RPMI 5 mM glucose + 10% FBS, 15.4 µM | 126 | 132 | 118
RPMI 5 mM glucose + 10% FBS, 46.1 µM | 115 | 123 | 108
RPMI 5 mM glucose + 10% dialyzed FBS, 0.000781 µM | 113 | 111 | 87.1
RPMI 5 mM glucose + 10% dialyzed FBS, 0.00234 µM | 121 | 110 | 90.9
RPMI 5 mM glucose + 10% dialyzed FBS, 0.00702 µM | 134 | 112 | 93.2
RPMI 5 mM glucose + 10% dialyzed FBS, 0.0211 µM | 130 | 115 | 86.1
RPMI 5 mM glucose + 10% dialyzed FBS, 0.0632 µM | 131 | 117 | 107
RPMI 5 mM glucose + 10% dialyzed FBS, 0.19 µM | 131 | 117 | 111
RPMI 5 mM glucose + 10% dialyzed FBS, 0.569 µM | 137 | 120 | 49.8
RPMI 5 mM glucose + 10% dialyzed FBS, 1.71 µM | 134 | 134 | 103
RPMI 5 mM glucose + 10% dialyzed FBS, 5.12 µM | 124 | 135 | 105
RPMI 5 mM glucose + 10% dialyzed FBS, 15.4 µM | 135 | 123 | 102
RPMI 5 mM glucose + 10% dialyzed FBS, 46.1 µM | 123 | 124 | 118

AUC of viability dose-response curve
Conditions | NOMO1 [4] | P12-Ichikawa [5] | SEM cells [6]
HPLM + 10% dialyzed FBS | 457 | 461 | 429
RPMI 5 mM glucose + 10% FBS | 451 | 457 | 471
RPMI 5 mM glucose + 10% dialyzed FBS | 470 | 445 | 434
